According to patent US12583856B2, “Inhibitors of protein kinase A” (Blueprint Medicines Corporation, priority 2021, dated 2026):

Key:
PRKACA = target: T1, PRKACA (Homo sapiens, UniProt P17612); assay: PRKACA assay at Km (EZ Reader 2 electrophoretic mobility shift); format: biochemical; settings: 5 μM ATP (Km), 1 μM Kemptide, 90 minutes at 25 C; read-out: Enz PRKACA IC50
T1 construct: purchased Millipore 539482
Protocol: (§1) A Perkin Elmer electrophoretic mobility shift platform (the EZ Reader 2) was used to assess the activity of test compounds against a kinase of interest. Fluorescently labeled substrate peptide was incubated in the presence of kinase, ATP, and the test compound, so that a portion of the peptide was phosphorylated by the enzyme. At the end of the reaction, the mix of phosphorylated (product) and non-phosphorylated (substrate) peptide containing solutions was passed through the microfluidic system of the Perkin Elmer EZ Reader 2 under an applied potential difference. The presence of the phosphate group on the product peptide provided a difference in mass and charge between those of the substrate peptide, resulting in a separation of the substrate and product pools in the sample. As the stopped solutions passed under the instrument's LED light the phosphorylated and un-phosphorylated fluorophore bound peptides were detected and resolved as separate peaks. The ratio between these peaks therefore reflected the test compound's impact on the kinase at that concentration in that well under those conditions.
PRKACA assay at Km: In each well of a 384-well plate, 0.007 ng/ul (0.18 nM) of PRKACA enzyme (Millipore: 539482) was incubated in a total of 12.5 μl of buffer (100 mM HEPES pH 7.5, 0.015% Brij 35, 10 mM MgCl2, 1 mM DTT) with 1 μM Kemptide peptide substrate (5-FAM-LRRASLG) (Anaspec 29933) and 5 μM ATP at 25 C for 90 minutes in the presence or absence of a dosed concentration series of test compounds (1% DMSO final concentration). The reaction was stopped by the addition of 80 μl of Stop buffer (100 mM HEPES pH 7.5, 0.015% Brij 35, 35 mM EDTA and 0.2% of Coating Reagent 3 (Perkin Elmer)). The plate was then read on the EZ Reader 2 (protocol settings: −2.0 psi, upstream voltage −700, downstream voltage −2700, post sample sip 60 seconds). Data was normalized to 0% and 100% inhibition controls and the IC50 calculated using a 4-parameter fit using GraphPad Prism.

[1] = test system: FL-HCC (LI5132) PDX tumors; assay: Efficacy study in FL-HCC (LI5132) patient-derived xenograft (PDX) model; format: in vivo; settings: oral delivery; compound 144: 30 mg/kg PO QDX34; FIG. 3
Source text: Efficacy: To establish the PDX model, 72 mice were inoculated with patient tumor cells to yield at least 36 mice with tumors of the required size. 18 of these mice were selected for the study.

[2] = test system: PKA (phosphorylation of VASP on Serine 157); assay: Cellular potency assay: P-VASP(157) HTRF in Forskolin-stimulated Huh7 cells; format: cell-based; settings: Homo sapiens, Huh-7, 4 hours compound, 5 μM Forskolin 30 minutes, read-out: Phos VASP(S157) IC50
Source text: PKA directly phosphorylate VASP on Serine 157. Phosphorylation of VASP on Serine 157. P-VASP(157) was therefore used as a readout of PKA cellular activity. P-VASP(157) was detected with a HTRF assay, which is based on a TR-FRET sandwich immunoassay-based format comprising two specific anti-VASP antibodies following the manufactors protocol (Cisbio, Catalog No. 63ADK066PEH). PKA was activated in the assay by the addition of Forskolin (Sigma-Aldrich, Catalog No. F3917).
Dose response in Forskolin-stimulated human Huh7 cells was measured as follows. Briefly, Huh7 cells were plated at a density of 2×10^4 cells per well in a 384-well opti-well cell culture plate in 15 μl of serum- and phenol-free Dulbecco's Modified Eagle Medium (DMEM, Gibco Catalog No. 21063-029), and incubated for over night at 37° C., 5% CO2. The next day, 3 μl of a dosed concentration series of test compound (0.24%) DMSO final concentration) was added to the wells, and the cells were incubated for an additional 4 hours at 37° C., 5% CO2. 2 μl of Forskolin was added at a final concentration of 5 μM and the plates were incubated for 30 minutes at 37° C., 5% CO2. 5 μl of lysis buffer containing 1% HALT protease cocktail inhibitors (ThermoFisher, Catalog No. 78430), was added to the cells and the mixture was incubated under gentle shaking for 30 min at room temperature. 10 μl of this lysate was transferred to a 384-well proxi plate and 2.5 μL of the premixed antibody solution was added. An antibody solution was prepared by combining phopho-VASP cryptate antibody and phospho-VASP d2 antibody, at twenty-fold dilution into a buffer solution following the manufactors' protocol. The lysate and antibody mixture was incubated for either 3 h at room temperature or overnight at 4° C. The fluorescence emission at two different wavelengths (665 nm and 620 nm) was read on an EnVision instrument.

PRKACA-DNAJB1 = target: T2, PRKACA-DNAJB1 (Homo sapiens, UniProt P17612); assay: PRKACA-DNAJB1 enzyme assay (EZ Reader 2 electrophoretic mobility shift); format: biochemical; settings: read-out: Enz PRKACA-DNAJB1 IC50
T2 construct: DNAJB1 (fusion partner, P25685); the other entry of the earlier key: DNAJB1 (P25685, DnaJ homolog subfamily B member 1)
Protocol: as §1

## O=C(N[C@@H]1c2ccccc2C[C@H]1N1CCCC1)c1ccc(-c2ccnc3[nH]ccc23)nc1 [Compound 144, N-[(1R,2R)-2-(Pyrrolidin-1-yl)-2,3-dihydro-1H-inden-1-yl]-6-{1H-pyrrolo[2,3-b]pyridin-4-yl}pyridine-3-carboxamide]
PRKACA
  IC50: ≤ 1 nM
[1]
  FLC tumor growth inhibition: significant FLC tumor growth inhibition
  tolerability of the dose: tolerated
[2]
  IC50: < 50 nM

## Cc1c[nH]c2nccc(-c3ccc(C(=O)N[C@@H]4c5c(F)cc(C(F)F)cc5C[C@@H]4O)cn3)c12 [Compound 162, N-[(1R,2S)-5-(Difluoromethyl)-7-fluoro-2-hydroxy-2,3-dihydro-1H-inden-1-yl]-6-{3-methyl-1H-pyrrolo[2,3-b]pyridin-4-yl}pyridine-3-carboxamide]
PRKACA
  IC50: ≤ 1 nM
[1]
  FLC tumor growth inhibition: significant FLC tumor growth inhibition
  tolerability of the dose: tolerated
[2]
  IC50: < 50 nM
PRKACA-DNAJB1
  IC50: ≤ 1 nM

## CN(C)[C@@H]1Cc2ccccc2[C@H]1NC(=O)c1ccc(-c2ccnc3[nH]ccc23)cc1 [Compound 120, N-[(1R,2R)-2-(Dimethylamino)-2,3-dihydro-1H-inden-1-yl]-4-{1H-pyrrolo[2,3-b]pyridin-4-yl}benzamide]
PRKACA
  IC50: ≤ 1 nM
[2]
  IC50: < 50 nM
PRKACA-DNAJB1
  IC50: ≤ 1 nM

## O=C(N[C@H]1CCOc2cc(F)ccc21)c1ccc(-c2ccnc3[nH]ccc23)cc1 [Compound 113]
PRKACA
  IC50: ≤ 1 nM
[2]
  IC50: 0.01 to 100 nM
PRKACA-DNAJB1
  IC50: 1.01 to 5 nM

## CN(C)C(=O)[C@@H]1CCCN1[C@@H]1Cc2cccc(Cl)c2[C@H]1NC(=O)c1ccc(-c2ccnc3[nH]ccc23)nc1 [Compound 191]
PRKACA
  IC50: ≤ 1 nM
[2]
  IC50: < 50 nM
PRKACA-DNAJB1
  IC50: ≤ 1 nM

## O=C(N[C@@H]1c2ccccc2C[C@H]1N1CCCC1)c1ccc(-c2ccnc3[nH]ccc23)cc1 [Compound 142]
PRKACA
  IC50: ≤ 1 nM
[2]
  IC50: < 50 nM
PRKACA-DNAJB1
  IC50: ≤ 1 nM

## O=C(N[C@@H]1c2ccccc2OC[C@@H]1O)c1ccc(-c2ccnc3[nH]ccc23)cc1 [Compound 110, N-[(3R,4R)-3-Hydroxy-3,4-dihydro-2H-1-benzopyran-4-yl]-4-{1H-pyrrolo[2,3-b]pyridin-4-yl}benzamide]
PRKACA
  IC50: ≤ 1 nM
[2]
  IC50: < 50 nM
PRKACA-DNAJB1
  IC50: ≤ 1 nM

## CO[C@@H]1CCN([C@@H]2Cc3cccc(Cl)c3[C@H]2NC(=O)c2ccc(-c3ccnc4[nH]cc(C)c34)nc2)C1 [Compound 188]
PRKACA
  IC50: ≤ 1 nM
[2]
  IC50: 0.01 to 100 nM
PRKACA-DNAJB1
  IC50: 1.01 to 5 nM

## O=C(N[C@H]1CCOc2ccccc21)c1ccc(-c2ccnc3[nH]ccc23)cc1 [Compound 103]
PRKACA
  IC50: ≤ 1 nM
[2]
  IC50: < 50 nM
PRKACA-DNAJB1
  IC50: ≤ 1 nM

## O=C(N[C@@H]1c2c(Cl)cccc2C[C@H]1N1C[C@H](O)[C@@H](F)C1)c1ccc(-c2ccnc3[nH]ccc23)nc1 [Compound 185]
PRKACA
  IC50: ≤ 1 nM
[2]
  IC50: < 50 nM
PRKACA-DNAJB1
  IC50: ≤ 1 nM

## O=C(N[C@@H]1c2c(F)cccc2OC[C@@H]1O)c1ccc(-c2ccnc3[nH]cc(F)c23)nc1 [Compound 141]
PRKACA
  IC50: ≤ 1 nM
[2]
  IC50: 0.01 to 100 nM
PRKACA-DNAJB1
  IC50: ≤ 1 nM

## O=C(N[C@@H]1c2c(Cl)cccc2C[C@H]1N1CC[C@@H](O)C1)c1ccc(-c2ccnc3[nH]ccc23)cn1 [Compound 176]
PRKACA
  IC50: ≤ 1 nM
[2]
  IC50: < 50 nM
PRKACA-DNAJB1
  IC50: ≤ 1 nM

## O=C(N[C@@H]1c2c(F)cccc2OC[C@@H]1O)c1ccc(-c2ccnc3[nH]ccc23)cn1 [Compound 127]
PRKACA
  IC50: ≤ 1 nM
[2]
  IC50: < 50 nM
PRKACA-DNAJB1
  IC50: 1.01 to 5 nM

## O=C(N[C@@H]1c2ccccc2C[C@@H]1O)c1ccc(-c2ccnc3[nH]ccc23)cc1 [Compound 101, N-[(1R,2S)-2-Hydroxy-2,3-dihydro-1H-inden-1-yl]-4-{1H-pyrrolo[2,3-b]pyridin-4-yl}benzamide]
PRKACA
  IC50: ≤ 1 nM
[2]
  IC50: < 50 nM
PRKACA-DNAJB1
  IC50: ≤ 1 nM

## Cc1c[nH]c2nccc(-c3ccc(C(=O)N[C@@H]4c5c(ccc(F)c5F)O[C@H](C)[C@@H]4O)cn3)c12 [Compound 161]
PRKACA
  IC50: ≤ 1 nM
[2]
  IC50: 0.01 to 100 nM
PRKACA-DNAJB1
  IC50: ≤ 1 nM

## C[C@]1(O)CCN([C@@H]2Cc3cccc(Cl)c3[C@H]2NC(=O)c2ccc(-c3ccnc4[nH]ccc34)nc2)C1 [Compound 180]
PRKACA
  IC50: ≤ 1 nM
[2]
  IC50: < 50 nM
PRKACA-DNAJB1
  IC50: ≤ 1 nM

## Cc1c[nH]c2nccc(-c3ccc(C(=O)N[C@@H]4c5c(ccc(F)c5F)O[C@@H](C)[C@H]4O)cn3)c12 [Compound 160]
PRKACA
  IC50: ≤ 1 nM
[2]
  IC50: < 50 nM
PRKACA-DNAJB1
  IC50: ≤ 1 nM

## O=C(N[C@H]1CCc2cc(C(F)F)ccc21)c1ccc(-c2ccnc3[nH]ccc23)cc1 (single isomer, unassigned) [Compound 125]
PRKACA
  IC50: ≤ 1 nM
[2]
  IC50: < 50 nM
PRKACA-DNAJB1
  IC50: ≤ 1 nM

## N[C@@H]1Cc2ccccc2[C@H]1NC(=O)c1ccc(-c2ccnc3[nH]ccc23)cc1 [Compound 100, N-[(1R,2R)-2-Amino-2,3-dihydro-1H-inden-1-yl]-4-{1H-pyrrolo[2,3-b]pyridin-4-yl}benzamide]
PRKACA
  IC50: ≤ 1 nM
[2]
  IC50: < 50 nM
PRKACA-DNAJB1
  IC50: ≤ 1 nM

## O=C(N[C@@H]1c2ccccc2C[C@@H]1O)c1ccc(-c2ccnc3[nH]cc(F)c23)cc1 [Compound 112, 4-(3-Fluoro-1H-pyrrolo[2,3-b]pyridin-4-yl)-N-((1R,2S)-2-hydroxy-2,3-dihydro-1H-inden-1-yl)benzamide]
PRKACA
  IC50: ≤ 1 nM
[2]
  IC50: 0.01 to 100 nM
PRKACA-DNAJB1
  IC50: ≤ 1 nM

## O=C(N[C@@H]1c2c(F)cc(C(F)F)cc2C[C@@H]1O)c1ccc(-c2ccnc3[nH]ccc23)nc1 [Compound 154]
PRKACA
  IC50: ≤ 1 nM
[2]
  IC50: < 50 nM
PRKACA-DNAJB1
  IC50: ≤ 1 nM

## O=C(N[C@@H]1c2c(F)cccc2C[C@H]1N1CC[C@H](F)C1)c1ccc(-c2ccnc3[nH]ccc23)nc1 [Compound 170]
PRKACA
  IC50: ≤ 1 nM
[2]
  IC50: < 50 nM
PRKACA-DNAJB1
  IC50: ≤ 1 nM

## CO[C@@H]1CCN([C@@H]2Cc3cccc(Cl)c3[C@H]2NC(=O)c2ccc(-c3ccnc4[nH]cc(F)c34)nc2)C1 [Compound 189]
PRKACA
  IC50: ≤ 1 nM
[2]
  IC50: 0.01 to 100 nM
PRKACA-DNAJB1
  IC50: ≤ 1 nM

## O=C(N[C@@H]1c2ccccc2C[C@H]1O)c1ccc(-c2ccnc3[nH]ccc23)cc1 [Compound 102]
PRKACA
  IC50: ≤ 1 nM
[2]
  IC50: 0.01 to 100 nM
PRKACA-DNAJB1
  IC50: ≤ 1 nM

## Cc1c[nH]c2nccc(-c3ccc(C(=O)N[C@H]4C[C@@H](C)Oc5ccc(F)c(F)c54)cn3)c12 [Compound 148, N-[(2R,4S)-5,6-Difluoro-2-methyl-3,4-dihydro-2H-1-benzopyran-4-yl]-6-{3-methyl-1H-pyrrolo[2,3-b]pyridin-4-yl}pyridine-3-carboxamide]
PRKACA
  IC50: ≤ 1 nM
[2]
  IC50: 0.01 to 100 nM
PRKACA-DNAJB1
  IC50: ≤ 1 nM

## O=C(N[C@@H]1c2ccccc2C[C@H]1O)c1ccc(-c2ccnc3[nH]cc(F)c23)cc1 [Compound 111]
PRKACA
  IC50: ≤ 1 nM
[2]
  IC50: < 50 nM
PRKACA-DNAJB1
  IC50: ≤ 1 nM

## Cc1c[nH]c2nccc(-c3ccc(C(=O)N[C@@H]4c5c(ccc(F)c5F)C[C@H]4N4CCCC4)cn3)c12 [Compound 175]
PRKACA
  IC50: ≤ 1 nM
[2]
  IC50: < 50 nM
PRKACA-DNAJB1
  IC50: ≤ 1 nM

## Cc1c[nH]c2nccc(-c3ccc(C(=O)N[C@@H]4c5c(F)cccc5C[C@H]4N4CCCC4)cn3)c12 [Compound 165]
PRKACA
  IC50: ≤ 1 nM
[2]
  IC50: < 50 nM
PRKACA-DNAJB1
  IC50: ≤ 1 nM
